Experimental data published in patent US6369109B1, “Betulinic acid and derivatives thereof useful for the treatment of neuroectodermal tumor” (Deutsches Krebsforschungszentrum Stiftung des Offentlichen …, priority 1998, dated 2002).
“Also recorded” adds a separate entry of the source.

Experiments:
[1] = test system: p53 protein in SH-EP neuroblastoma cells; experiment: Western blot of p53 accumulation; type: cell-based, human; details: 10 μg/ml betulinic acid; 0.5 μg/ml doxorubicin 12 h; FIG. 5D
Protocol: Cells were lysed for 30 min at 4° C. in PBS with 0.5% Triton X (Serva, Heidelberg, Germany) and 1 mM phenylmethylsulfonyl fluoride (Sigma, Deisenhofen, Germany) followed by high-speed centrifugation. Membrane proteins were eluted in buffer containing 0.1 M glycine. PH 3.0 and 1.5 M Tris, pH 8.8. Protein concentration was assayed using bicinchoninic acid (Pierce Chemical Co., Rockford, Ill.). Forty μg of protein per lane were separated by 12% SDS-PAGE and electroblotted onto nitrocellulose (Amersham, Braunschweig, Germany). Equal protein loading was controlled by Ponceau red staining of membranes. After blocking for 1 h in PBS supplemented with 2% BSA (Sigma) and 0.1% Tween 20 (Sigma), immunodetection of FLICE, CPP32, PARP, Bax, Bcl-x, Bcl-2, and p53 protein was done using mouse anti-FLICE monoclonal antibody C15 (1:5 dilution of hybridoma supernatant), mouse anti-CPP32 monoclonal antibody (1:1000, Transduction Laboratories, Lexington, KY), rabbit anti-PARP polyclonal antibody (1:10000, Enzyme Systems Products), rabbit anti-Bax polyclonal antibody (1:500, Calbiochem, Bad Soden, Germany), rabbit anti-Bcl-x polyclonal antibody (1:1000, Santa Cruz Biotechnology, Santa Cruz, Calif.), mouse anti-p53 monoclonal antibody (1:10000, Transduction Laboratories), and goat anti-mouse 1gG or goat antirabbit IgG (1:5000, Santa Cruz Biotechnology), ECL (Amersham) was used for detection. […]

[2] = test system: cytochrome c in SHEP cells; experiment: Drug-induced release of cyt c from mitochondria in cells (Western blot); type: cell-based, human; details: 0.5 μg/ml Doxo or 10 μg/ml Bet A; FIG. 16A
Protocol: Cells were lysed for 30 mm at 4° C. in PBS with 0.5% Triton X (Serva, Heidelberg, Germany) and 1 mM PMSF (Sigma, Deisenhofen, Germany) followed by high-speed centrifugation. Membrane proteins were eluted in buffer containing 0.1 M glycine, pH 3.0 and 1.5 M Tris, pH 8.8. Protein concentration was assayed using bicinchoninic acid (Pierce, Rockford, Ill.). 40 μg protein per lane was separated by 12% or 15% SDS-PAGE and electroblotted onto nitrocellulose (Amersham, Braunschweig, Germany). Equal protein loading was controlled by Ponceau red staining of membranes. […]
For isolation of mitochondria, cells (3×10^8 per sample) were washed twice with ice-cold PBS and resuspended with five volumes of buffer A (50 mM Tris buffer, 1 mM EGTA, 5 mM 2-mercaptoethanol, 0.2% BSA, 10 mM KH2PO4, pH 7.6, 0.4 M sucrose) and allowed to swell on ice for 20 min. […] The protein concentration of mitochondria or cytosolic extracts was determined by the Bradford method. […]

COc1cccc2c1C(=O)c1c(O)c3c(c(O)c1C2=O)C[C@@](O)(C(=O)CO)C[C@@H]3O[C@H]1C[C@H](N)[C@H](O)[C@H](C)O1 [doxorubicin]
accumulation of p53 protein [1]: induces the accumulation of p53 protein; also recorded: strongly increased | mitochondrial cytochrome c levels after stimulation [2]: mitochondrial cytochrome c levels declined
